In the OligoGym collection one finds target mRNA inhibition data, which are given here for 85 sequences.

After the bases stand the sugars from the 5' end (letter, count) and the backbone: PS all phosphorothioate, else s phosphorothioate and o phosphodiester by linkage. Methylation of C is not given here. e = 2'-O-(2-methoxyethyl) (MOE); k = constrained ethyl (cEt); d = 2'-deoxy (DNA); m = 2'-O-methyl

In this data set the target is HSD17B13. The conditions noted are these: ASO, HepaRG.

The sequence GTAGCTTTTGTCCACC (sugars k3 d10 k3, PS) registered a target mRNA inhibition (1 µM) of 63%.
Consider AAAGACTTTGAGACTC (sugars k3 d10 k3, PS), for which the target mRNA inhibition is, setting by setting: (0.02 µM) 0%; (0.078 µM) 18%; (0.313 µM) 40%; (1 µM) 68%; (1.25 µM) 65%; (5 µM) 87%.
For the sequence GATGGTAAGGAGTAGT (sugars k3 d10 k3, PS), the target mRNA inhibition (1 µM) stood at 28%.
The same measure, in the same setting: then AAGGATTTCTAGGATG (sugars k3 d10 k3, PS), with 71%.
In the case of GACTGTTGAGCTCAAA (sugars k3 d10 k3, PS), where the note is “1 µM”, the target mRNA inhibition came out at 52%.
The same measure, in the same setting: as for “ATCTTAAGATACCCAG (sugars kkdddddddddkekek, PS)”, the figure is 45%; as for AAGACTTTGAGACTCT (sugars k3 d10 k3, PS), 62%; as for CCAATTATGAATCTGC (sugars k3 d10 k3, PS), 61%.
Same read-out and setting: then “TATTGGTAAGTATTCC (sugars kkdddddddddkekek, PS)”, with 36%; and “AGGTAGCTTTTGTCCA (sugars k3 d1 m1 d8 k3, PS)”, with 59%; and TAAATTACTCCGTTCT (sugars k3 d10 k3, PS), with 36%.
Same read-out and setting: then AATCCTATGCAAATTC (sugars k3 d10 k3, PS), with 42%.
For GGTTTTGATACCAGTT (sugars k3 d10 k3, PS), under “1 µM”, the target mRNA inhibition came to 58%.
GAGTATTTCCTCTGGG (sugars k3 d10 k3, PS): under “1 µM”, the target mRNA inhibition stood at 23%.
Still for that read-out and setting: as for “GTGTTCTTGTTGATAT (sugars k3 d9 k3 e1, PS)”, the figure is 66%.
On the same count and under the same terms, as for TAAGCAGAATTGTGAA (sugars k3 d10 k3, PS), the figure is 35%; as for GTTTAGCTGATAGGCT (sugars k3 d10 k3, PS), 47%; as for CCAAAAATGTCCTAGG (sugars k3 d10 k3, PS), 38%.
The same measure, in the same setting: then “GTGGCATGGCTACAGA (sugars k3 d9 k3 e1, PS)”, with 38%; and “CCATCTATCAGACTTC (sugars kkdddddddddkekek, PS)”, with 52%.
In the case of CTACCACATACGCATG (sugars k3 d10 k3, PS), the target mRNA inhibition (1 µM) is 25%.
On the same count and under the same terms, as for GATCCTATATACATCC (sugars k3 d10 k3, PS), the figure is 49%; as for ATCAATTTATCATACC (sugars k3 d10 k3, PS), 11%; as for TCAAATTAAGATGTCC (sugars k3 d10 k3, PS), 6%.
Still for that read-out and setting: as for “CTTGAACAGTCTTAAA (sugars k3 d9 k3 e1, PS)”, the figure is 43%; as for GTCAAAAACCGTCAAA (sugars k3 d10 k3, PS), 39%.
Same read-out and setting: then TTAAGCATTGTTAGCT (sugars k3 d10 k3, PS), with 16%; and ACTAGAACTCCCAACC (sugars k3 d10 k3, PS), with 20%.
In the case of CTGCCCTAGATTCTAC (sugars k3 d10 k3, PS), the target mRNA inhibition (1 µM) was found to be 33%.
For GTTATTAGAAGTCAGC (sugars k3 d10 k3, PS), for the setting “1 µM”, the target mRNA inhibition was determined as 56%.
Same read-out and setting: as for GCTGAGAGAGTATTTC (sugars k3 d10 k3, PS), the figure is 51%.
As to “TGATGTAGTGGGAGTC (sugars k3 d9 k3 e1, PS)”, the target mRNA inhibition worked out at 5% (0.02 µM); 0% (0.078 µM); 36% (0.313 µM); 62% (1.25 µM); 74% (5 µM).
Take AGGGAGGTAGCTTTTG (sugars k3 d10 k3, PS): where the note is “1 µM”, the target mRNA inhibition amounted to 46%.
Same read-out and setting: then ATATAGCCCTTTCCCC (sugars k3 d10 k3, PS), with 26%; and TCTTATTGGTAAGTAT (sugars k3 d10 k3, PS), with 25%.
Same read-out and setting: then AGAATAGAGTTGCACC (sugars k3 d10 k3, PS), with 70%.
AGCTTGGAAGGAGACT (sugars k3 d10 k3, PS): the target mRNA inhibition (1 µM) was determined as 69%.
The same measure, in the same setting: then CATAACTTCATAGTGG (sugars k3 d10 k3, PS), with 31%.
The same measure, in the same setting: then GCTACTTGAACAGTCT (sugars k3 d10 k3, PS), with 66%; and TTACATATCAATGCCT (sugars k3 d10 k3, PS), with 12%.
The same measure, in the same setting: as for “TGTGUTCTTGTTGATA (sugars k3 d1 m1 d8 k3, PS)”, the figure is 41%; as for ACTTTTAGGGAGGTAG (sugars k3 d10 k3, PS), 20%.
AGAGGATAGTCCATGC (sugars k3 d10 k3, PS): the target mRNA inhibition amounted to 12% (0.02 µM); 19% (0.078 µM); 51% (0.313 µM); 74% (1 µM); 73% (1.25 µM); 97% (5 µM).
Sequence CTAGTAATTGCATCTG (sugars k3 d10 k3, PS) yielded a target mRNA inhibition (1 µM) of 57%.
“GGTGGTAACGGTGATC (sugars k3 d1 m1 d8 k3, PS)” gave a target mRNA inhibition (1 µM) of 35%.
On the same count and under the same terms, as for CCTAGGGAGGAGGTAC (sugars k3 d10 k3, PS), the figure is 34%.
“AGTTGCACCGTTTTGG (sugars k3 d1 m1 d8 k3, PS)” showed a target mRNA inhibition (1 µM) of 38%.
Where the note is “1 µM”, “TATTAGAAGTCAGCCC (sugars k3 d1 m1 d8 k3, PS)” gave a target mRNA inhibition of 29%.
Where the note is “1 µM”, TTGACCTCAAATGTCT (sugars k3 d10 k3, PS) showed a target mRNA inhibition of 0%.
Still for that read-out and setting: as for “CAGTCTTAAACCTTCC (sugars kkdddddddddkekek, PS)”, the figure is 51%.
As for TTCCGTCTCACAATCT (sugars k3 d10 k3, PS), the target mRNA inhibition is 10% (0.02 µM); 13% (0.078 µM); 49% (0.313 µM); 79% (1 µM); 83% (1.25 µM); 80% (5 µM).
Under “1 µM”, “TTCTGTGGCATGGCTA (sugars k3 d1 m1 d8 k3, PS)” had a target mRNA inhibition of 65%.
On the same count and under the same terms, as for ATAACTACATGACCTG (sugars k3 d10 k3, PS), the figure is 29%.
The same measure, in the same setting: then ACAATCTCCCCAGCCA (sugars k3 d10 k3, PS), with 67%; and CAAGGGAACACTGTCA (sugars k3 d10 k3, PS), with 58%.
Turning to “TTAGUTAGAATAGTCT (sugars k3 d1 m1 d8 k3, PS)”, for the setting “1 µM”, the target mRNA inhibition amounted to 35%.
The same measure, in the same setting: as for “CTAGTGCCAAACCAAT (sugars kkdddddddddkekek, PS)”, the figure is 47%; as for ACACTAATTTAGTCAA (sugars k3 d10 k3, PS), 16%; as for GTGGCCATGATTTCTC (sugars k3 d10 k3, PS), 40%.
Same read-out and setting: as for GATGTCAGACCTCTGT (sugars k3 d10 k3, PS), the figure is 6%; as for GTTTCAACTAAACATG (sugars k3 d10 k3, PS), 65%; as for “GAATGCTACTTGAACA (sugars k3 d9 k3 e1, PS)”, 56%.
Still for that read-out and setting: then ATCTCTTAGCTGTGCA (sugars k3 d10 k3, PS), with 63%; and TGTTGACCTCAAATGT (sugars k3 d10 k3, PS), with 14%.
On to TTTTATTGGGCCCAAT (sugars k3 d10 k3, PS), for which the target mRNA inhibition (1 µM) is 18%.
Same read-out and setting: as for CTAAGTAGTAATTCTA (sugars k3 d10 k3, PS), the figure is 35%.
Same read-out and setting: as for “TTGAGATAAAGCTGCC (sugars kkkdddddkdddkkke, PS)”, the figure is 43%.
Still for that read-out and setting: as for ATATACAGACTAAGGG (sugars k3 d10 k3, PS), the figure is 24%.
In turn, “GCTAGTGCCAAACCAA (sugars kkdddddddddkekek, PS)” showed a target mRNA inhibition (1 µM) of 62%.
Same read-out and setting: as for CACATATGTGAAGAGC (sugars k3 d10 k3, PS), the figure is 71%; as for “GTAGCTTTTGTCCACC (sugars k3 d1 m1 d8 k3, PS)”, 64%; as for ATTTAGAATACGCTGA (sugars k3 d10 k3, PS), 19%.
Still for that read-out and setting: then CTGATTAATCTTGATG (sugars k3 d10 k3, PS), with 32%; and GACGATGTGGCCATGA (sugars k3 d10 k3, PS), with 42%; and TGATTACAGCATCAAG (sugars k3 d10 k3, PS), with 69%.
Same read-out and setting: then “TTGACTGCTGCTAGTG (sugars k3 d1 m1 d8 k3, PS)”, with 40%.
Under “1 µM”, “CTTAAGATACCCAGGT (sugars kkdddddddddkekek, PS)” yielded a target mRNA inhibition of 34%.
Regarding TAGCAATTTAGCAAGA (sugars k3 d10 k3, PS), for the setting “1 µM”, the target mRNA inhibition was 54%.
Same read-out and setting: then “GAGACATGAGGTTTTG (sugars k3 d9 k3 e1, PS)”, with 61%.
Take GTTTTTTGAACCGTAT (sugars k3 d10 k3, PS): the target mRNA inhibition reads like this: (0.02 µM) 0%; (0.078 µM) 0%; (0.313 µM) 9%; (1 µM) 71%; (1.25 µM) 56%; (5 µM) 74%.
Turning to TAATTGCATCTGCTCG (sugars k3 d10 k3, PS), for the setting “1 µM”, the target mRNA inhibition was 46%.
On the same count and under the same terms, as for ACTACATTAACACCAA (sugars k3 d10 k3, PS), the figure is 46%.
Same read-out and setting: as for “CAGCATTGATTCGAAA (sugars k3 d1 m1 d8 k3, PS)”, the figure is 37%.
Sequence “AATCACAAGTAAGGTA (sugars kkdddddddddkekek, PS)” gave a target mRNA inhibition (1 µM) of 59%.
Where the note is “1 µM”, ACAATCTAGCAACCTC (sugars k3 d10 k3, PS) showed a target mRNA inhibition of 44%.
